Read-outs that look alike come from different tables or passages of the source.
Columns and labels:
patients with AKI [1] = conditions: human, in vivo
patients with AKI [2] = conditions: human, in vivo; remark: listed apart in the source
patients with AKI [3] = system: patients with AKI; set-up: species or system human; conditions: in vivo
ICU patients with AKI = conditions: cited from earlier work
all ICU patients = conditions: cited from earlier work
ICU patients = assay: Anti-emetic use and in-ICU death, logistic regression (Example 3); assay type: in vivo, human; conditions: outcome in-ICU death
[4] = system: patients without AKI on admission or prior to receiving drug; assay: Anti-emetic usage and AKI risk in first ICU encounter: usage, max KDIGO category, binary logistic regression (Example 3); assay type: in vivo, human; conditions: for MAX KDIGO AKI Category 0 (%) / MAX KDIGO AKI Category 0, number of patients / MAX KDIGO AKI Category 1 (%) / MAX KDIGO AKI Category 1, number of patients / MAX KDIGO AKI Category 2 (%) / MAX KDIGO AKI Category 2, number of patients / MAX KDIGO AKI Category 3 (%) / MAX KDIGO AKI Category 3, number of patients: drug users, use before discharge/death or before AKI
Text: Study Population: The study population excludes patients with end-stage kidney disease and excludes patients with Acute Kidney Injury on admission or prior to receiving drug. […] Metoclopramide is primarily a dopamine D2 receptor antagonist anti-emetic. […] Prochlorperazine is primarily a dopamine receptor antagonist anti-emetic. […] This was a binary logistic regression with an outcome of experiencing any AKI within a first ICU encounter. The independent variable was use of anti-emetic prior to AKI (or before discharge if no AKI). […] The independent variable was use of anti-emetic prior to AKI (or before discharge if no AKI). […] The outcome was experiencing any AKI. The […] was the use of medication within the average time prior to AKI.

[5] = literature and/or clinical trials
[6] = use of medication within average time prior to AKI
[7] = use within average time prior to AKI and Apache Score on ICU admission
[8] = outcome AKI Category 2 or 3 vs Category 0 or 1, use of anti-emetic prior to AKI (or before discharge)
[9] = outcome any AKI within first ICU encounter, use of anti-emetic prior to AKI (or before discharge if no AKI)
[10] = outcome any AKI, use of medication within the average time prior to AKI

Compound	Death rate in MIMIC III database (patients with AKI [1])	Death rate in eICU database (patients with AKI [2])	Coefficient (patients with AKI [3])	Reported for protecting effect in ICU patients with AKI (ICU patients with AKI; [5])	Reported for protecting effect in all ICU patients (all ICU patients; [5])	Reported for protecting effect in ICU patients with AKI (ICU patients with AKI)	Reported for protecting effect in all ICU patients (all ICU patients)	other results
NC[C@H](O)c1ccc(O)c(O)c1 [Norepinephrine]	497.51 per 1,000 patients	336.62 per 1,000 patients	0.167	N	Y^2	–	–	–
CCCCc1oc2ccccc2c1C(=O)c1cc(I)c(OCCN(CC)CC)c(I)c1 [Amiodarone]	338.95 per 1,000 patients	269.89 per 1,000 patients	0.090	N	N	–	–	–
O=S(=O)([O-])[O-].[Mg+2] [Magnesium Sulfate]	203.36 per 1,000 patients	172.14 per 1,000 patients	−0.054	–	–	Y^4	Y^3	–
NS(=O)(=O)c1cc(C(=O)O)c(NCc2ccco2)cc1Cl [Furosemide]	214.64 per 1,000 patients	120.87 per 1,000 patients	−0.036	Y^8	Y^7	–	–	–
CCCCC(CC)COC(=O)CC(C(=O)OCC(CC)CCCC)S(=O)(=O)O (stereo not shown) [Docusate]	178.57 per 1,000 patients	136.48 per 1,000 patients	−0.028	N	N	–	–	–
COc1ccc2c3c1O[C@H]1C(=O)CC[C@@]4(O)[C@@H](C2)N(C)CC[C@]314 [Oxycodone]	94.98 per 1,000 patients	55.56 per 1,000 patients	−0.089	–	–	N	Y^9	–
Cc1ncc2n1-c1ccc(Cl)cc1C(c1ccccc1F)=NC2 [Midazolam]	899.95 per 1,000 patients	273.07 per 1,000 patients	0.027	–	–	N	Y^20	–
O=C(CCCN1CCC(O)(c2ccc(Cl)cc2)CC1)c1ccc(F)cc1 [Haloperidol]	194.85 per 1,000 patients	201.23 per 1,000 patients	−0.063	N	N	–	–	–
CC(=O)CC(c1ccccc1)c1c(O)c2ccccc2oc1=O (stereo not shown) [Warfarin]	67.31 per 1,000 patients	35.34 per 1,000 patients	−0.115	N	Y^1	–	–	–
CN1CC[C@]23c4c5ccc(O)c4O[C@H]2[C@@H](O)C=C[C@H]3[C@H]1C5 [Morphine]	376.48 per 1,000 patients	234.81 per 1,000 patients	0.198	–	–	N	Y^1	–
Heparin	210.41 per 1,000 patients	143.03 per 1,000 patients	−0.053	N	Y^10	–	–	–
CCN(CC)CCNC(=O)c1cc(Cl)c(N)cc1OC [Metoclopramide]	248.67 per 1,000 patients	158.32 per 1,000 patients	–	N	N	–	–	Odds Ratio (ICU patients; [6]): 1.270; Odds Ratio (ICU patients; [7]): 1.08; MAX KDIGO AKI Category 0 (%) [4]: (72.54) %; MAX KDIGO AKI Category 0, number of patients [4]: 3,830; MAX KDIGO AKI Category 1 (%) [4]: (14.05) %; MAX KDIGO AKI Category 1, number of patients [4]: 742; MAX KDIGO AKI Category 2 (%) [4]: (6.91) %; MAX KDIGO AKI Category 2, number of patients [4]: 365; MAX KDIGO AKI Category 3 (%) [4]: (6.50) %; MAX KDIGO AKI Category 3, number of patients [4]: 343; Odds Ratio [4, 8]: 1.033; Odds Ratio [4, 9]: 0.408; Odds Ratio [4, 10]: 1.249
CN1CCN(CCCN2c3ccccc3Sc3ccc(Cl)cc32)CC1 [Prochlorperazine]	–	–	–	–	–	–	–	Odds Ratio (ICU patients; [6]): 0.736; Odds Ratio (ICU patients; [7]): 0.879; MAX KDIGO AKI Category 0 (%) [4]: (73.48) %; MAX KDIGO AKI Category 0, number of patients [4]: 2,488; MAX KDIGO AKI Category 1 (%) [4]: (14.77) %; MAX KDIGO AKI Category 1, number of patients [4]: 500; MAX KDIGO AKI Category 2 (%) [4]: (5.88) %; MAX KDIGO AKI Category 2, number of patients [4]: 199; MAX KDIGO AKI Category 3 (%) [4]: (5.88) %; MAX KDIGO AKI Category 3, number of patients [4]: 199; Odds Ratio [4, 8]: 0.90; Odds Ratio [4, 9]: 0.457; Odds Ratio [4, 10]: 0.988
O=C1Nc2ccc(Cl)cc2C(c2ccccc2Cl)=NC1O (stereo not shown) [Lorazepam]	285.59 per 1,000 patients	228.92 per 1,000 patients	0.031	–	–	N	N	–
COCCc1ccc(OCC(O)CNC(C)C)cc1 (stereo not shown) [Metoprolol]	169.99 per 1,000 patients	107.87 per 1,000 patients	−0.051	N	Y^11	–	–	–
C[C@@H](O)[C@H]1C(=O)N2C(C(=O)O)=C(S[C@@H]3CN[C@H](C(=O)N(C)C)C3)[C@H](C)[C@H]12 [Meropenem]	460.50 per 1,000 patients	269.96 per 1,000 patients	0.076	Y^13	Y^12	–	–	–

Source: patent US20240009173A1, “Use of 5-HT3-Targeting Drugs for Treatment of Acute Kidney Injury” (priority 2020, published 2024)
